Results from patent publication US12691070B2, “Cationic lipids and preparation method thereof” (RiboX Therapeutics HK Limited, priority 2023, dated 2026).

Legend:
BALB/C mice [1] = assay: Local tolerance determination by footpad injection; assay type: in vivo; conditions: cirRNA (SEQ ID NO: 1) LNP, 0.175 mg*kg-1 subcutaneous into the footpad, 24 hours post minus prior
Experimental: 6-8 week old, female BALB/C mice were injected with 0.175 mg*kg-1 RNA LNPs by subcutaneous injection into the footpad. Prior to, and 24 hours post injections, injected footpad thickness was determined by a caliper.

Hep G2 cells [2] = assay: In vitro expression of firefly-luciferase, Hep G2; assay type: cell-based
In short: (§1)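 Both cell lines receive RNA-LNPs carrying firefly-luciferase RNA at 100 ng/mL. Lysis follows washing at 72 h post-transfection, and luciferase activity is then quantified on a luminometer using a commercial luciferase assay reagent.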

RAW 264.7 cells [3] = assay: In vitro expression of firefly-luciferase, RAW 264.7; assay type: cell-based
In short: as §1

BALB/C mice [4] = assay: In vivo expression, whole-body luminescence (IVIS)
Experimental: 6-8 week old, female BALB/C mice were injected with 0.05 mg*kg-1 of RNA-LNPs encoding for firefly-luciferase by intravenous injection. At 6 hours post injection, animals were intraperitoneally injected with 15 mg/ml of Luciferin substrate and whole-body luminescence was determined by a bioluminescent in vivo imaging system (IVIS).

[5] = tested on: Aspartate Aminotransferase (AST); assay: Liver enzyme elevation in serum, AST; assay type: in vivo; conditions: cirRNA (SEQ ID NO: 1) LNPs, BALB/C mice, intravenous 0.5 MPK
Experimental: (§2) 6-8 week old, female BALB/C mice were injected with 0.5 mg*kg-1 of RNA LNPs by intravenous injection. At 2 and 24 hours post injection, animals were bled and sera concentrations of Alanine Aminotransferase (ALT) and Aspartate Aminotransferase (AST) were determined by a blood chemistry analyzer.

RAW 264.7 cells [6] = assay: In vitro toxicity (CellTiter-Glo cell viability), RAW 264.7; assay type: cell-based;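 further: percent of untreated cells luminescence signal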
In short: (§3)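 Toxicity of RNA-LNPs (1 μg/mL) is reported as cell viability, calculated from CellTiter-Glo luminescence measured at 72 hours after transfection.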

[7] = LNP zeta potential (Zetasizer); assay type: physicochemical
In short: (§4)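 Dynamic light scattering and zeta potential measurements were run on PBS-dialyzed LNPs, which had been formed by microfluidic mixing at 12 ml/min with final lipid at 1.5 mM to 6 mM. RNA content and percent encapsulation were determined by Ribogreen with and without Triton X-100.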

MCP-I = MCP-I cytokine elevation in serum; assay type: in vivo; conditions: cirRNA (SEQ ID NO: 1) LNPs, mice
Experimental: 6-8 week old, female BALB/C mice were injected with 0.5 mg*kg-1 of RNA LNPs by intravenous injection. At 2 and 24 hours post injection, animals were bled and sera concentrations of MCP-I were determined by an immunoassay (Luminex).

[8] = LNP size and polydispersity index (PDI) by dynamic light scattering; assay type: physicochemical; conditions: for Size: in nm (unit assumed)
In short: as §4

[9] = RNA encapsulation efficacy by Quant-IT Ribogreen kit; assay type: physicochemical; conditions: for Encapsulation Efficiency %: LNP with cirRNA (SEQ ID NO: 1); for Encapsulation Efficiency: LNP with mRNA (SEQ ID NO: 2)
In short: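 Ribogreen read-out: encapsulation = 100% − (signal of intact RNA-LNPs / signal with Triton X-100). Particles: ionizable lipid:DSPC:Chol:DMG-PEG2000 50:10:38.5:1.5, ionizable lipid:ribonucleotide 15 or 6, final lipid 1.5–6 mM, PBS-dialyzed.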

Hep G2 cells [10] = assay: In vitro toxicity (CellTiter-Glo cell viability), Hep G2; assay type: cell-based;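 further: percent of untreated cells luminescence signal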
In short: as §3

[11] = tested on: Alanine Aminotransferase (ALT); assay: Liver enzyme elevation in serum, ALT; assay type: in vivo; conditions: cirRNA (SEQ ID NO: 1) LNPs, BALB/C mice, intravenous 0.5 MPK
Experimental: as §2

[12] = cirRNA (SEQ ID NO: 1) LNPs, firefly-luciferase luminescence, Hep G2 cells
[13] = mRNA (SEQ ID NO: 2) LNP, 100 ng/mL, 72 hours post transfection, luciferase activity
[14] = cirRNA (SEQ ID NO: 1) LNPs, firefly-luciferase luminescence, RAW 264.7 cells
[15] = cirRNA (SEQ ID NO: 1) LNPs, BALB/C mice
[16] = mRNA (SEQ ID NO: 2) LNP, 0.05 mg*kg-1 intravenous, 6 hours post injection
[17] = cirRNA (SEQ ID NO: 1) LNPs, RAW 264.7 cells
[18] = mRNA (SEQ ID NO: 2) LNP, 1 μg/mL, 72 hours post transfection
[19] = cirRNA (SEQ ID NO: 1) LNPs, Hep G2 cells

SMILES | Footpad Thickness (24 h−0 h, mm) (BALB/C mice [1]) | In vitro Expression HepG2 (Hep G2 cells [2]; [12]) | In vitro Expression HepG2 (Hep G2 cells [2]; [13]) | In vitro Expression RAW (RAW 264.7 cells [3]; [14]) | In vitro Expression RAW (RAW 264.7 cells [3]; [13]) | In vivo Expression (Whole Body) (BALB/C mice [4]; [15]) | In vivo Expression (Whole Body) (BALB/C mice [4]; [16]) | AST in Sera (IU/L) 2 hours After 0.5 MPK Injection [5] | AST in Sera (IU/L) 24 hours After 0.5 MPK Injection [5] | In vitro Viability RAW (RAW 264.7 cells [6]; [17]) | In vitro Viability RAW (RAW 264.7 cells [6]; [18]) | Zeta (mV) ([7]; LNP with cirRNA (SEQ ID NO: 1)) | Zeta (mV) ([7]; LNP with mRNA (SEQ ID NO: 2)) | MCP-I in Sera 2 hours After 0.5 MPK Injection (MCP-I) | MCP-I in Sera 24 hours After 0.5 MPK Injection (MCP-I) | PDI ([8]; LNP with cirRNA (SEQ ID NO: 1)) | Size ([8]; LNP with cirRNA (SEQ ID NO: 1)) | PDI ([8]; LNP with mRNA (SEQ ID NO: 2)) | Size ([8]; LNP with mRNA (SEQ ID NO: 2)) | Encapsulation Efficiency % [9] | other results
CCCCCCCCC(CCCCCC)C(=O)OCCCCCCCCN(CCCCCCCCOC(=O)C(CCCCCC)CCCCCCCC)CCCOC(=O)NCCCN(CC)CC (stereo not drawn) [Lipid 376] | 0.89 mm | 4.84E+06 | 5.32E+05 | 1.00E+06 | 8.33E+04 | 1.16E+08 | 1.56E+09 | 434.67 IU/L | 293.67 IU/L | 87% | 100% | 9.074 mV | 5.722 mV | 6397.67 pg/mL | 561.62 pg/mL | 0.1398 | 102 | 0.07745 | 87.9 | 97% | Encapsulation Efficiency [9]: 90.28%; In vitro Viability HepG2 (Hep G2 cells [10]; [19]): 48%; In vitro Viability HepG2 (Hep G2 cells [10]; [18]): 53%; ALT in Sera (IU/L) 2 hours After 0.5 MPK Injection [11]: 117.33 IU/L; ALT in Sera (IU/L) 24 hours After 0.5 MPK Injection [11]: 141.33 IU/L
CCCCCCCCC(CCCCCC)C(=O)OCCCCCCCCN(CCCCCCCCOC(=O)C(CCCCCC)CCCCCCCC)CCOC(=O)NCCN(C)C (stereo not drawn) [Lipid 6, 10-(8-((2-hexyldecanoyl)oxy)octyl)-2-methyl-6-oxo-7-oxa-2,5,10-triazaoctadecan-18-yl 2-hexyldecanoate] | 0.44 mm | 1.82E+08 | 2.28E+08 | 1.11E+07 | 1.21E+07 | 1.21E+09 | 1.91E+09 | 316.00 IU/L | 411.00 IU/L | 100% | 77% | −2.24 mV | 4.201 mV | 7009.50 pg/mL | 1653.42 pg/mL | 0.06 | 87.2 | 0.03302 | 106.5 | 96% | Encapsulation Efficiency [9]: 93.16%; In vitro Viability HepG2 (Hep G2 cells [10]; [19]): 89%; In vitro Viability HepG2 (Hep G2 cells [10]; [18]): 113%; ALT in Sera (IU/L) 2 hours After 0.5 MPK Injection [11]: 99.33 IU/L; ALT in Sera (IU/L) 24 hours After 0.5 MPK Injection [11]: 181.67 IU/L
CCCCC/C=C\C/C=C\CCCCCCCCN(CCCCCCCC(=O)OC(CCCCCCCC)CCCCCCCC)CCOC(=O)NCCN1CCCC1 [Lipid 128, heptadecan-9-yl 8-(((9Z,12Z)-octadeca-9,12-dien-1-yl)(2-(((2-(pyrrolidin-1-yl)ethyl)carbamoyl)oxy)ethyl)amino)octanoate] | 0.98 mm | 4.01E+06 | 2.16E+07 | 5.15E+06 | 1.72E+06 | 5.46E+08 | 6.98E+08 | 195.53 IU/L | 131.30 IU/L | 59% | 92% | 0.282 mV | 6.141 mV | 6355.24 pg/mL | 318.11 pg/mL | 0.1 | 93.54 | 0.1021 | 75.38 | 94% | Encapsulation Efficiency [9]: 91%; In vitro Viability HepG2 (Hep G2 cells [10]; [19]): 103%; In vitro Viability HepG2 (Hep G2 cells [10]; [18]): 94%; ALT in Sera (IU/L) 2 hours After 0.5 MPK Injection [11]: 58.17 IU/L; ALT in Sera (IU/L) 24 hours After 0.5 MPK Injection [11]: 56.00 IU/L
